The values below come from patent publication US4782043A, “Renin inhibitors containing a C-terminal amide cycle” (Merck & Co., Inc., priority 1985, dated 1988).

Peptide text beside a SMILES is read from it.

One experiment addresses hog kidney renin (Sus scrofa, UniProt A0A287APG1). In words: Hog renin inhibition. It is filed as biochemical. Conditions: pH 7.3, concentration producing 50% inhibition of renin activity, read-out: I50. As for the experimental part: An assay was carried out in order to determine the inhibitory potency of the peptides of the present invention. The assay measured the inhibition of hog kidney renin, and was in accordance with the procedure described in Rich et al., J. Med. Chem. 23: 27, 1980, except that a pH of 7.3 was used. The results of the assay, illustrated in the table below, are expressed as I50 values, which refers to the concentration of peptide inhibitor necessary to produce 50% inhibition of renin activity. This I50 value is obtained typically by plotting data from four inhibitor concentrations. Pepstatin was used as an active control.

For the next experiment, the target named is T1, human kidney renin (Homo sapiens, UniProt P00797).
T1 construct: human kidney renin purified as described in Bangham; from tissue; host or cells: human kidney
T1 sequence (P00797 67-406): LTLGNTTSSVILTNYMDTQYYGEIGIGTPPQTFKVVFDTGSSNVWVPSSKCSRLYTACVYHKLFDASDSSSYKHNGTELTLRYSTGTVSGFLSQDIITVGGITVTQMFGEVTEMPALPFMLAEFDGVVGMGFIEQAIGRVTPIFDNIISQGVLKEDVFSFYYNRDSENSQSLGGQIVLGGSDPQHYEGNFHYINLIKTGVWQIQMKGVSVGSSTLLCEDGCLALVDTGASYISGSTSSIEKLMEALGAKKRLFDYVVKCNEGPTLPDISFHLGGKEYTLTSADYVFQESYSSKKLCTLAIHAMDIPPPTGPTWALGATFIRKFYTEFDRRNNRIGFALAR
In words: Human renin inhibition. Format: biochemical. Conditions: purified human kidney renin; dissociation constant of enzyme-inhibitor complex. As for the experimental part:
An assay was carried out in order to determine the inhibitory potency of the peptides of the present invention. The assay measured the inhibition of human kidney renin purified as described in Bangham, D. R., Robertson, I., Robinson, J. I. S., Robinson, C. J., and Tree, M., Clinical Science and Molecular Medicine, 48 (Supp. 2): 136s-159s (1975), and further purified by affinity chromatography on pepstatin-aminohexyl-Sepharase as describe in Poe, M., Wu., J. K., Florance, J. R., Radkey, J. A., Bennett, C. D., and Hoagsteen, K., J. Biol. Chem. (1982, in press). The assay was also in accordance with Poe et al. cited above. Results are expressed as KI values, which refer to the dissociation constant of the inhibited enzyme-inhibitor complex. This KI value was obtained as described above. Pepstatin was used as an active control.

The test system of a further experiment is hog renin. Conditions: nephrectomized rats after injection of hog renin (Gross et al. 1971); cited from earlier work.

Chain of hog kidney renin (A0A287APG1 67-407): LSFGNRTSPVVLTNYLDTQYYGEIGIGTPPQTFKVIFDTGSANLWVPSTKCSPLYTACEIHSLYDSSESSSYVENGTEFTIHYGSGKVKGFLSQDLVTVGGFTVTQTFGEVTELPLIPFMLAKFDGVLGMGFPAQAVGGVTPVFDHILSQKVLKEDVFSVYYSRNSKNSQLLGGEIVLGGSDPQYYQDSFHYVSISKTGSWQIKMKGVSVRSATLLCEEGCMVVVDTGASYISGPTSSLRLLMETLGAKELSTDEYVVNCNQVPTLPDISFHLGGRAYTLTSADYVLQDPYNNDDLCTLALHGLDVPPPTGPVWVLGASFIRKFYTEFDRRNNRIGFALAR

Take `CC(C)C[C@@H]1NC(=O)C[C@H](O)[C@H](CC(C)C)NC(=O)[C@@H](NC(=O)[C@H](Cc2ccccc2)NC(=O)[C@@H]2CCCN2C(=O)[C@H](Cc2c[nH]cn2)NC(=O)C(C)C)CCCCNC(=O)CNC(=O)[C@H](Cc2ccccc2)NC1=O` (HELM PEPTIDE1{[CC(C)C(=O)[*:2]].H.P.F.K.[CC(C)C[C@H](N[*:1])[C@@H](O)CC(=O)[*:2]].L.F.G}$PEPTIDE1,PEPTIDE1,5:R3-9:R2$$$V2.0): the IC50 at hog kidney renin is 1700 nM.
The same measure, in the same setting: as for `CC(C)C[C@@H]1NC(=O)C[C@H](O)[C@H](CC(C)C)NC(=O)[C@@H](NC(=O)[C@H](Cc2ccccc2)NC(=O)[C@@H]2CCCN2C(=O)[C@H](Cc2c[nH]cn2)NC(=O)C(C)C)CCNC(=O)CNC(=O)[C@H](Cc2ccccc2)NC1=O` (HELM PEPTIDE1{[CC(C)C(=O)[*:2]].H.P.F.[Dab].[CC(C)C[C@H](N[*:1])[C@@H](O)CC(=O)[*:2]].L.F.G}$PEPTIDE1,PEPTIDE1,5:R3-9:R2$$$V2.0), the figure is 7100 nM; as for `CC(C)C[C@@H]1NC(=O)C[C@H](O)[C@H](CC(C)C)NC(=O)[C@@H](NC(=O)[C@H](Cc2ccccc2)NC(=O)[C@@H]2CCCN2C(=O)[C@H](Cc2c[nH]cn2)NC(=O)C(C)C)CCCNC(=O)CNC(=O)[C@H](Cc2ccccc2)NC1=O` (HELM PEPTIDE1{[CC(C)C(=O)[*:2]].H.P.F.[Orn].[CC(C)C[C@H](N[*:1])[C@@H](O)CC(=O)[*:2]].L.F.G}$PEPTIDE1,PEPTIDE1,5:R3-9:R2$$$V2.0), 2800 nM; as for `CC(C)C[C@@H]1NC(=O)C[C@H](O)[C@H](CC(C)C)NC(=O)[C@@H](NC(=O)[C@H](Cc2ccccc2)NC(=O)[C@@H]2CCCN2C(=O)[C@H](Cc2c[nH]cn2)NC(=O)C(C)C)CCCNC(=O)[C@H](Cc2ccccc2)NC1=O` (HELM PEPTIDE1{[CC(C)C(=O)[*:2]].H.P.F.[Orn].[CC(C)C[C@H](N[*:1])[C@@H](O)CC(=O)[*:2]].L.F}$PEPTIDE1,PEPTIDE1,5:R3-8:R2$$$V2.0), 24000 nM.
The same measure, in the same setting: then `CC(C)C[C@@H]1NC(=O)C[C@H](O)[C@H](Cc2ccccc2)NC(=O)[C@@H](NC(=O)C(CCCc2ccccc2)Cc2ccccc2)CCCCNC(=O)[C@H](Cc2ccccc2)NC1=O` (single isomer, unassigned) [drawing 38], with 26 nM.
The Ki is the equilibrium dissociation constant of an inhibitor or competing ligand from its target. Compound `CC(C)C[C@@H]1NC(=O)C[C@H](O)[C@H](Cc2ccccc2)NC(=O)[C@@H](NC(=O)C(CCCc2ccccc2)Cc2ccccc2)CCCCNC(=O)[C@H](Cc2ccccc2)NC1=O` (single isomer, unassigned) [drawing 41] had a Ki on human kidney renin of 190 nM.
For the compound `CC(C)C[C@@H]1NC(=O)C[C@H](O)[C@H](CC(C)C)NC(=O)[C@@H](NC(=O)[C@H](Cc2ccccc2)NC(=O)[C@@H]2CCCN2C(=O)[C@H](Cc2c[nH]cn2)NC(=O)C(C)C)CCCCNC(=O)[C@H](Cc2ccccc2)NC1=O` [drawing 31] (HELM PEPTIDE1{[CC(C)C(=O)[*:2]].H.P.F.K.[CC(C)C[C@H](N[*:1])[C@@H](O)CC(=O)[*:2]].L.F}$PEPTIDE1,PEPTIDE1,5:R3-8:R2$$$V2.0), the IC50 at hog kidney renin amounted to 230 nM.
Still for that read-out and setting: then `CC(C)C[C@@H]1NC(=O)C[C@H](O)[C@H](CC(C)C)NC(=O)[C@@H](NC(=O)[C@H](Cc2ccccc2)NC(=O)OC(C)(C)C)CCCCNC(=O)[C@H](Cc2ccccc2)NC1=O` [drawing 37] (HELM PEPTIDE1{[CC(C)(C)OC(=O)[*:2]].F.K.[CC(C)C[C@H](N[*:1])[C@@H](O)CC(=O)[*:2]].L.F}$PEPTIDE1,PEPTIDE1,3:R3-6:R2$$$V2.0), with 450 nM.
`CC(C)C[C@@H]1NC(=O)C[C@H](O)[C@H](CC(C)C)NC(=O)[C@@H](NC(=O)[C@H](Cc2ccccc2)NC(=O)[C@@H]2CCCN2C(=O)[C@H](Cc2c[nH]cn2)NC(=O)C(C)C)CCCCNC(=O)[C@H](Cc2ccccc2)NC1=O` [drawing 39] (HELM PEPTIDE1{[CC(C)C(=O)[*:2]].H.P.F.K.[CC(C)C[C@H](N[*:1])[C@@H](O)CC(=O)[*:2]].L.F}$PEPTIDE1,PEPTIDE1,5:R3-8:R2$$$V2.0) came in with a Ki at human kidney renin of 55 nM.
In the case of `CC(C)C[C@@H]1NC(=O)C[C@H](O)[C@H](CC(C)C)NC(=O)[C@@H](NC(=O)[C@H](Cc2ccccc2)NC(=O)OC(C)(C)C)CCCCNC(=O)[C@H](Cc2ccccc2)NC1=O` [drawing 40] (HELM PEPTIDE1{[CC(C)(C)OC(=O)[*:2]].F.K.[CC(C)C[C@H](N[*:1])[C@@H](O)CC(=O)[*:2]].L.F}$PEPTIDE1,PEPTIDE1,3:R3-6:R2$$$V2.0), the Ki on human kidney renin amounted to 64 nM.
Take Pepstatin: the “blood pressure in vivo” value with hog renin is “reduce blood pressure in vivo”.
